Series [1] concerns axons of the tail. In words: Axonal patterning in regenerating tails (acetylated α-tubulin immunohistochemistry). Set-up: species or system Xenopus laevis. The following applies: in vivo. The text has this:
Finally, to characterize downstream morphogenetic consequences of V-ATPase abrogation, we traced axonal paths during regeneration using immunohistochemistry with an acetylated α-tubulin antibody. In normally regenerating tails, axons appear increased in number (relative to the uncut portion of tail) and they extend into the bud in bundles parallel to the main anterior-posterior axis of the tail (FIG. 14H; green arrows indicate normal axon patterning, while black arrows indicate abnormal axon number and/or location). […] Moreover, in normal refractory tails, there is no apparent increase in the number of axons, and those that are present terminate well anterior of the tail tip (FIG. 14K). […]
Axon and muscle marker detection was performed using fluorescent secondary antibodies. […] Fluorescence images were collected on a Leica TCS SPZ confocal imaging system; λex=543. […] Background autofluorescence was removed by segmentation of the original fluorescence images. The brightest pixels could readily be selected such that the selection best represented the pattern of axons. […]

Series [2] relates to Xenopus embryos. Type of series: in vivo. The following applies: treated from fertilization to stage 7; organs scored at stage 45.
Series [3] concerns Xenopus tail regeneration.
The test system of series [4] is H+ flux from living early blastomeres. In words: Self-referencing ion-selective (Seris) probe measurement of H+ flux. Further details: species or system Xenopus laevis. As to conditions: in vivo. The text has this:
We examined ion flux using a self-referencing ion probe to measure H^+ flux from living early blastomeres. The H^+-V-ATPase endogenously acts to pump protons out of the cell (e.g., it mediates proton efflux). We note, however, that other ion transporters modulate influx of ions. The term ion flux refers to movement of ions across membranes, regardless of the direction. The techniques provided herein can be used to evaluate changes in either ion efflux or influx, and thus can generally be used to evaluate ion flux and changes in ion flux following manipulation of an ion transporter protein or a class of ion transporter proteins.
To confirm that the asymmetric efflux was due to asymmetric H^+-V-ATPase function, we compared H^+ efflux in control embryos to efflux from embryos treated with a variety of ion flux inhibitors.
The self-referencing ion-selective (Seris) probe consists of an ion selective microelectrode that is translated between two points in the extracellular space near the plasma membrane of a cell. If a net flux of ion into or out of the cell is detected, the resultant concentration gradient will be detected as a voltage difference from which the ion flux through the membrane can be calculated. […]. […]

Series [5] concerns activated caspase-3. The series is described as follows: Activated caspase-3 localization (apoptosis) in regenerating tails. Type of series: in vivo, Xenopus laevis. As to conditions: V-ATPase-inhibited larvae. The procedure: Further experiments were done in the Xenopus system based on the results of the pharmacological screen (see Example 6). […] The V-ATPase (Nishi, 2002, Nature Reviews Molecular Cell Biology 3: 94-103) generates strong pH and voltage gradients at the expense of ATP, when expressed in vesicular or cell plasma membranes.
Xenopus larvae were fixed overnight in MEMFA, heated for 2 hrs at 65° C. in 50% formamide (to inactivate endogenous alkaline phosphatases; this procedure was not done when using fluorescent secondary antibodies), permeabilized in PBTr+0.1% Triton X100 for 30 min, and processed for immunohistochemistry using alkaline phosphatase secondary antibody (Levin, 2004, Journal of Biochemical and Biophysical Methods 58: 85-96) until signal was optimal and background minimal (usually 12 hrs). […] Anti-KCNK1 (a generous gift of Dr. S. A. Goldstein and D. Bockenhauer) was used at 1:500. The 12-101 muscle marker (Gurdon et al., 1985, Cell 41: 913-22; Kintner and Brockes, 1984, Nature 308: 67-9) was used at 1:1 dilution; this monoclonal antibody developed by Jeremy P. Brockes was obtained from the Developmental Studies Hybridoma Bank developed under the auspices of the NICHD and maintained by The University of Iowa, Department of Biological Sciences, Iowa City, Iowa 52242.

Consider one compound from US20080131920A1, “Ion flux in biological processes, and methods related thereto” (priority 2005, published 2008).

As for `C/C=C/[C@H]1O[C@@](O)([C@@H](C)[C@H](O)[C@H](C)[C@H]2OC(=O)/C(OC)=C/C(C)=C/[C@@H](C)[C@@H](O)[C@@H](CC)[C@@H](O)[C@H](C)C/C(C)=C/C=C/[C@@H]2OC)C[C@@H](O)[C@@H]1C` [concanamycin], the “axon patterning in V-ATPase-inhibited tails” value in series [1] is listed as “axon patterning is abnormal”. Besides, the “heterotaxia, % of the embryos” value in series [2] is given as 35%. The general toxicity entry in series [3] (150 nM) was “absence of general toxicity”. Also, the “effect on tail regeneration” value in series [3] (150 nM, larvae amputated at stage 41) is given as “strong inhibition of regeneration”. Moreover, the “effect on rate or extent of tail regeneration” value in series [3] (compound in medium beginning immediately after tail amputation (stage 40-41)) was “absence of regeneration”. The “Regeneration Index Treated/Control” value in series [3] (tail regeneration in the compound versus control) is listed as 23%. Also, the “Regeneration Index Treated” value in series [3] (tail regeneration in the compound, RI computed for each dish of embryos) is given as 49. In addition, in series [4], the “left/right asymmetry in the proton fluxes” value was “eliminated” and the “proton efflux on the right side” value is “about half of its original value”. The “degree of apoptosis vs control” value in series [5] is given as “no significant difference”.
